Reference: publication doi:10.1101/2024.08.19.608619, “Discovery of potent SARS-CoV-2 nsp3 macrodomain inhibitors uncovers lack of translation to cellular antiviral response” (bioRxiv, 2024)
Like-named read-outs stand apart in the source and are kept apart here.

Tests used:
[1] = biological target: T1, SARS-CoV-2 nsp3-mac1 (Severe acute respiratory syndrome coronavirus 2, UniProt P0DTD1); assay: biochemical; design: SARS-CoV-2 nsp3 macrodomain TR-FRET single point, per cent inhibition, n=2
[2] = biological target: T1, SARS-CoV-2 nsp3-mac1; assay: biochemical; format: biochemical; details: SARS-CoV-2 nsp3 macrodomain TR-FRET single point
[3] = read-out: perc_inhibition_mean, batch_name=ASAP-0000401-001
[4] = read-out: perc_inhibition_mean, batch_name=ASAP-0000402-001
[5] = read-out: perc_inhibition_mean, batch_name=ASAP-0000403-001
[6] = read-out: perc_inhibition_mean, batch_name=ASAP-0000404-001
[7] = read-out: perc_inhibition_mean, batch_name=ASAP-0000405-001
[8] = read-out: perc_inhibition_mean, batch_name=ASAP-0000406-001
[9] = read-out: perc_inhibition_mean, batch_name=ASAP-0000407-001
[10] = read-out: perc_inhibition_mean, batch_name=ASAP-0000408-001
[11] = read-out: perc_inhibition_mean, batch_name=ASAP-0000409-001
[12] = read-out: perc_inhibition_mean, batch_name=ASAP-0000410-001
[13] = read-out: perc_inhibition_mean, batch_name=ASAP-0000411-001
[14] = read-out: perc_inhibition_mean, batch_name=ASAP-0000412-001
[15] = read-out: perc_inhibition_mean, batch_name=ASAP-0000413-001
[16] = read-out: perc_inhibition_mean, batch_name=ASAP-0000414-001
[17] = read-out: perc_inhibition_mean, batch_name=ASAP-0000415-001
[18] = read-out: perc_inhibition_mean, batch_name=ASAP-0000416-001
[19] = read-out: perc_inhibition_mean, batch_name=ASAP-0000417-001
[20] = read-out: perc_inhibition_mean, batch_name=ASAP-0000418-001
[21] = read-out: perc_inhibition_mean, batch_name=ASAP-0000419-001
[22] = read-out: perc_inhibition_mean, batch_name=ASAP-0000420-001
[23] = read-out: perc_inhibition_mean, batch_name=ASAP-0000421-001
[24] = read-out: perc_inhibition_mean, batch_name=ASAP-0000422-001
[25] = read-out: perc_inhibition_mean, batch_name=ASAP-0000423-001
[26] = read-out: perc_inhibition_mean, batch_name=ASAP-0000424-001
[27] = read-out: perc_inhibition_mean, batch_name=ASAP-0000425-001
[28] = read-out: perc_inhibition_mean, batch_name=ASAP-0000426-001
[29] = read-out: perc_inhibition_mean, batch_name=ASAP-0000427-001
[30] = read-out: perc_inhibition_mean, batch_name=ASAP-0000428-001
[31] = read-out: perc_inhibition_mean, batch_name=ASAP-0000429-001
[32] = read-out: perc_inhibition_mean, batch_name=ASAP-0000430-001
[33] = read-out: perc_inhibition_mean, batch_name=ASAP-0000448-001

Structure (SMILES) | perc_inhibition_mean ([2]; concentration 49.75 uM) | perc_inhibition_mean ([2]; concentration 99.5 uM) | other results
O=C(CCN(Cc1cccc(Cl)c1)C(=O)C1CCC(O)CC1)N1CCNCC1 (stereo not shown) [ASAP-0000401] | -4.315% | 0.465% | inhibition at 49.75 µM [1, 3]: -4.32%; inhibition at 99.5 µM [1, 3]: 0.465%
O=C(c1ccnc(S)c1)N1CCC(c2ccn3ncc(C(=O)N4CCCCC4)c3c2)CC1 [ASAP-0000402] | 20.252% | 35.496% | inhibition at 49.75 µM [1, 4]: 20.3%; inhibition at 99.5 µM [1, 4]: 35.5%
O=C1CCN(C(=O)c2cnn3ccc(C4CCN(C(=O)c5ccccc5)CC4)cc23)CCN1 [ASAP-0000403] | -2.402% | -7.808% | inhibition at 49.75 µM [1, 5]: -2.4%; inhibition at 99.5 µM [1, 5]: -7.81%
O=C(c1ccccc1)N1CCC(c2ccn3ncc(C(=O)N4CCn5ncnc5C4)c3c2)CC1 [ASAP-0000404] | -3.769% | -3.519% | inhibition at 49.75 µM [1, 6]: -3.77%; inhibition at 99.5 µM [1, 6]: -3.52%
O=C(c1ccncc1)N1CCC(c2ccn3ncc(C(=O)N4CCCCC4)c3c2)CC1 [ASAP-0000405] | 10.851% | 26.497% | inhibition at 49.75 µM [1, 7]: 10.9%; inhibition at 99.5 µM [1, 7]: 26.5%
CCN1CCN(C(=O)c2cnn3ccc(C4CCN(C(=O)c5ccccc5)CC4)cc23)CC1=O [ASAP-0000406] | -8.634% | -3.464% | inhibition at 49.75 µM [1, 8]: -8.63%; inhibition at 99.5 µM [1, 8]: -3.46%
C[C@@H](NC(=O)c1cnn2ccc(C3CCN(C(=O)c4ccccc4)CC3)cc12)c1cc[nH]n1 [ASAP-0000407] | -4.99% | -2.773% | inhibition at 49.75 µM [1, 9]: -4.99%; inhibition at 99.5 µM [1, 9]: -2.77%
O=C(CCN(Cc1cccc(Cl)c1)C(=O)[C@@H]1CC1(F)F)N1CCNCC1 [ASAP-0000408] | -2.073% | -3.764% | inhibition at 49.75 µM [1, 10]: -2.07%; inhibition at 99.5 µM [1, 10]: -3.76%
O=C(CCN(Cc1cccc(Cl)c1)C(=O)c1ccc(O)cc1)N1CCNCC1 [ASAP-0000409] | -0.343% | -1.632% | inhibition at 49.75 µM [1, 11]: -0.343%; inhibition at 99.5 µM [1, 11]: -1.63%
Cc1nsc(N(C)C(=O)c2cnn3ccc(C4CCN(C(=O)c5ccccc5)CC4)cc23)n1 [ASAP-0000410] | -10.512% | -11.519% | inhibition at 49.75 µM [1, 12]: -10.5%; inhibition at 99.5 µM [1, 12]: -11.5%
O=C(c1ccccc1)N1CCC(c2ccn3ncc(C(=O)N4CCc5cccnc54)c3c2)CC1 [ASAP-0000411] | -4.67% | -8.02% | inhibition at 49.75 µM [1, 13]: -4.67%; inhibition at 99.5 µM [1, 13]: -8.02%
CN(C[C@H]1CCCN1)C(=O)c1cnn2ccc(C3CCN(C(=O)c4ccccc4)CC3)cc12 [ASAP-0000412] | -7.471% | -6.586% | inhibition at 49.75 µM [1, 14]: -7.47%; inhibition at 99.5 µM [1, 14]: -6.59%
O=C1CC[C@@H](CNC(=O)c2cnn3ccc(C4CCN(C(=O)c5ccccc5)CC4)cc23)N1 [ASAP-0000413] | -2.317% | -1.468% | inhibition at 49.75 µM [1, 15]: -2.32%; inhibition at 99.5 µM [1, 15]: -1.47%
Cc1[nH]ncc1CN(C)C(=O)c1cnn2ccc(C3CCN(C(=O)c4ccccc4)CC3)cc12 [ASAP-0000414] | -1.138% | 0.307% | inhibition at 49.75 µM [1, 16]: -1.14%; inhibition at 99.5 µM [1, 16]: 0.307%
O=C(c1cccnc1O)N1CCC(c2ccn3ncc(C(=O)N4CCCCC4)c3c2)CC1 [ASAP-0000415] | -7.036% | -3.94% | inhibition at 49.75 µM [1, 17]: -7.04%; inhibition at 99.5 µM [1, 17]: -3.94%
Cc1ccc(C(=O)N(CCC(=O)N2CCNCC2)Cc2cccc(Cl)c2)[nH]1 [ASAP-0000416] | -5.904% | -3.936% | inhibition at 49.75 µM [1, 18]: -5.9%; inhibition at 99.5 µM [1, 18]: -3.94%

Structure (SMILES) | perc_inhibition_mean ([2]; concentration 49.75 uM) | perc_inhibition_mean ([2]; concentration 99.5 uM) | other results
O=C(CCN(Cc1cccc(Cl)c1)C(=O)[C@@H]1C[C@@H](O)CN1)N1CCNCC1 [ASAP-0000417] | -3.538% | 4.743% | inhibition at 49.75 µM [1, 19]: -3.54%; inhibition at 99.5 µM [1, 19]: 4.74%
Cn1ncnc1C(=O)N1CCC(c2ccn3ncc(C(=O)N4CCCCC4)c3c2)CC1 [ASAP-0000418] | 2.38% | 20.346% | inhibition at 49.75 µM [1, 20]: 2.38%; inhibition at 99.5 µM [1, 20]: 20.3%
O=C(c1nc(=O)[nH][nH]1)N1CCC(c2ccn3ncc(C(=O)N4CCCCC4)c3c2)CC1 [ASAP-0000419] | 23.445% | 34.579% | inhibition at 49.75 µM [1, 21]: 23.4%; inhibition at 99.5 µM [1, 21]: 34.6%
O=C(c1cc(O)ncn1)N1CCC(c2ccn3ncc(C(=O)N4CCCCC4)c3c2)CC1 [ASAP-0000420] | 19.125% | 30.869% | inhibition at 49.75 µM [1, 22]: 19.1%; inhibition at 99.5 µM [1, 22]: 30.9%
O=C(c1c[nH]nn1)N1CCC(c2ccn3ncc(C(=O)N4CCCCC4)c3c2)CC1 [ASAP-0000421] | 14.65% | 25.652% | inhibition at 49.75 µM [1, 23]: 14.7%; inhibition at 99.5 µM [1, 23]: 25.7%
O=C(c1ccc(O)nc1)N1CCC(c2ccn3ncc(C(=O)N4CCCCC4)c3c2)CC1 [ASAP-0000422] | 10.998% | 26.485% | inhibition at 49.75 µM [1, 24]: 11%; inhibition at 99.5 µM [1, 24]: 26.5%
Cc1c[nH]nc1C(=O)N1CCC(c2ccn3ncc(C(=O)N4CCCCC4)c3c2)CC1 [ASAP-0000423] | 8.474% | 27.38% | inhibition at 49.75 µM [1, 25]: 8.47%; inhibition at 99.5 µM [1, 25]: 27.4%
CN(C(=O)c1cnn2ccc(C3CCN(C(=O)c4ccccc4)CC3)cc12)c1ccccc1O [ASAP-0000424] | 10.02% | 15.878% | inhibition at 49.75 µM [1, 26]: 10%; inhibition at 99.5 µM [1, 26]: 15.9%
COC[C@@H](Nc1ncnc2nc[nH]c12)c1ccc(C)o1 [ASAP-0000425] | -4.638% | 3.942% | inhibition at 49.75 µM [1, 27]: -4.64%; inhibition at 99.5 µM [1, 27]: 3.94%
CC(C)c1nc([C@@H](C)Nc2ncnc3nc[nH]c23)cs1 [ASAP-0000426] | 2.645% | 3.067% | inhibition at 49.75 µM [1, 28]: 2.65%; inhibition at 99.5 µM [1, 28]: 3.07%
CN(c1ncnc2[nH]ncc12)[C@@H](CCO)c1ccccc1 [ASAP-0000427] | 8.856% | 5.14% | inhibition at 49.75 µM [1, 29]: 8.86%; inhibition at 99.5 µM [1, 29]: 5.14%
CC(C)[C@H]1CNC(=O)CN1c1ncnc2[nH]ccc12 [ASAP-0000428] | 6.836% | 17.564% | inhibition at 49.75 µM [1, 30]: 6.84%; inhibition at 99.5 µM [1, 30]: 17.6%
Cc1nc(NC(=O)Cn2cnc3ccccc3c2=O)c2cc[nH]c2n1 [ASAP-0000429] | -4.067% | -4.886% | inhibition at 49.75 µM [1, 31]: -4.07%; inhibition at 99.5 µM [1, 31]: -4.89%
O=C(c1nnn[nH]1)N1CCC(c2ccn3ncc(C(=O)N4CCCCC4)c3c2)CC1 [ASAP-0000430] | 55.152% | 69.012% | inhibition at 49.75 µM [1, 32]: 55.2%; inhibition at 99.5 µM [1, 32]: 69%
Cn1cc([C@H]2CSCCN2c2ncnc3[nH]ccc23)cn1 [ASAP-0000448] | -6.49% | -3.463% | inhibition at 49.75 µM [1, 33]: -6.49%; inhibition at 99.5 µM [1, 33]: -3.46%
